Drawing on patent publication US20130172320A1, “PYRIDO [4,3-B] INDOLE AND PYRIDO [3,4-B] INDOLE DERIVATIVES AND METHODS OF USE” (priority 2010, published 2013), this text covers inhibition for two compounds.

Test [1] concerns the target T1, human recombinant adrenergic α2B receptor (Homo sapiens, UniProt P18089).
T1 construct: expressed in transfected cells; host or cells: Chinese hamster ovary (CHO) K1 cells
T1 sequence (P18089 1-450): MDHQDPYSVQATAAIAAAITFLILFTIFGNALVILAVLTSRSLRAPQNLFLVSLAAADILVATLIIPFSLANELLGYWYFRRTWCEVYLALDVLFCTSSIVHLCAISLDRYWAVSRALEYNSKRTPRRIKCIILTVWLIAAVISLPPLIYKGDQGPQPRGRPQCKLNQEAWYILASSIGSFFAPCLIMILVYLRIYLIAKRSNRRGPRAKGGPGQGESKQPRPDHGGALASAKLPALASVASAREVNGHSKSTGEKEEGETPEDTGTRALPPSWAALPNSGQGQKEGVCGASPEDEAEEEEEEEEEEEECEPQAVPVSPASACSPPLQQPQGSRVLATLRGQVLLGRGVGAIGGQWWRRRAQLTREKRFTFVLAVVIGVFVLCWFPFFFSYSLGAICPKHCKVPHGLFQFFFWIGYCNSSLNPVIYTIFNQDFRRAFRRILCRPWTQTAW
The experiment in a line: Adrenergic α2B radioligand binding ([3H]Rauwolscine). The note with it: compound at 0.1 μM; read-out: Percentage inhibition of ligand binding, Adrenergic (0.1 μM) a2B. As to the method: To evaluate in radioligand binding assays the activity of compounds of the invention, human recombinant adrenergic α2B receptor expressed in Chinese hamster ovary (CHO) K1 cells (Uhlen, S. et al, Eur. J. Pharmacol. 343(1):93, 1998) in a modified Tris-HCl buffer (50 mM Tris-HCl, pH 7.4, 12.5 mM MgCl2, 1 mM EDTA, 0.2% BSA) was used. Compounds of the invention were incubated with 2.5 nM [^3H]Rauwolscine for 60 min at 25° C. Non-specific binding was estimated in the presence of 10 μM Prozosin. Receptor proteins were filtered and washed, the filters were then counted to determine [^3H]Rauwolscine specifically bound. Compounds were screened at 1 μM or lower, using 1% DMSO as vehicle. Biochemical assay results are presented as the percent inhibition of specific binding in Table 3.

The target in test [2] is human recombinant histamine H1 receptor (Homo sapiens, UniProt P35367). The experiment in a line: Histamine H1 radioligand binding ([3H]Pyrilamine). The note with it: compound at 0.1 μM; 1.2 nM [3H]Pyrilamine; read-out: Binding data (Percentage inhibition) Histamine H1 (0.1 μM). The protocol: To evaluate in radioligand binding assays the activity of compounds of the invention, human recombinant histamine H1 receptor expressed in Chinese hamster ovary (CHO) cells (De Backer, M. et al, Biochem. Biophys. Res. Comm. 197(3):1601, 1993) in a modified Tris-HCl buffer (50 mM Tris-HCl, pH 7.4, 2 mM MgCl2, 100 mM NaCl, 250 mM Sucrose) was used. Compounds of the invention were incubated with 1.2 nM [^3H]Pyrilamine for 180 min at 25° C. Non-specific binding was estimated in the presence of 1 μM Pyrilamine. Receptor proteins were filtered and washed, the filters were then counted to determine [^3H]Pyrilamine specifically bound. Compounds were screened at 1 μM or lower, using 1% DMSO as vehicle. Biochemical assay results are presented as the percent inhibition of specific binding in Table 2.
Chain of human recombinant histamine H1 receptor (P35367 whole entry): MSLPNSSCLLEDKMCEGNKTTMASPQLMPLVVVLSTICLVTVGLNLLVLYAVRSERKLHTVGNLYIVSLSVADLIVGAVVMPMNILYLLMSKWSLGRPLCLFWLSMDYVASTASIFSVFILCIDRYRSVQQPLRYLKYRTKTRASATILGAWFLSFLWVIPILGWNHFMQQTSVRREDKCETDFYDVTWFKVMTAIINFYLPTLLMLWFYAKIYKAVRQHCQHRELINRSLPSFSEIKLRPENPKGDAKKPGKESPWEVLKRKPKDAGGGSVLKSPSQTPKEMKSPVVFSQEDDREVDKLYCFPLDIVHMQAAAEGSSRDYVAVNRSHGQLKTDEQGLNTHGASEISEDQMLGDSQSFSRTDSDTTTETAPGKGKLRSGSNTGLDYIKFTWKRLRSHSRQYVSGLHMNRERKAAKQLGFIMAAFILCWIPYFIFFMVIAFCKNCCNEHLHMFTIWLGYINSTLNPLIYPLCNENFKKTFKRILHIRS

Regarding `C#CCC1(C)CN(C)Cc2c1n(C)c1ccc(C)cc21` (stereo not shown) [Compound 47, 2,4,5,8-tetramethyl-4-(prop-2-ynyl)-2,3,4,5-tetrahydro-1H-pyrido[4,3-b]indole], the figures for the inhibition at 0.1 µM in test [1] and in test [2] were 32% and 49%, respectively.

Consider `Cc1ccc2c(c1)c1c(n2C)C(C)(CCc2nc(-c3ccccc3)cs2)CN(C)C1` (stereo not shown) [Compound 48], for which the results for the inhibition at 0.1 µM in test [1] and in test [2] were -12% and 89%, respectively.

Usually inhibition stands for the relative decrease from the control value, in per cent.
